Source: patent US11981643B1, “Oxoimidazolidine derivatives as anti-tubercular agents” (priority 2023, dated 2024)
In brackets after ≈: the same amount, converted by molar mass.

System: MDR strain of MTB
Experiment: microbe, parasite or virus in culture
Format: cell-based
Conditions: Mycobacterium tuberculosis, 192 h, read-out: Anti-tubercular activity against Mycobacterium tuberculosis, MDR (minimum inhibitory concentration, MIC)

| Structure (SMILES) | MIC |
| --- | --- |
| CN1/C(=C\c2ccc(Br)o2)C(=O)N/C1=N\C(=O)Nc1cccc(F)c1 [Compound 4g, 1-{(2E,5Z)-5-[(5-Bromofuran-2-yl)methylidene]-1-methyl-4-oxoimidazolidin-2-ylidene}-3-(3-fluorophenyl)urea] | 32 µg/mL (≈ 78.6 µM) |
| CN1C(=Cc2ccc([N+](=O)[O-])cc2)C(=O)N/C1=N\C(=S)Nc1cccc(Cl)c1 (stereo in doubt) [Compound 4q, 1-(3-Chlorophenyl)-3-[(2E,5Z)-1-methyl-5-(4-nitrobenzylidene)-4-oxoimidazolidin-2-ylidene]thiourea] | 32 µg/mL (≈ 76.9 µM) |
| CN1C(=Cc2ccc(-c3ccccc3[N+](=O)[O-])o2)C(=O)N/C1=N\C(=S)Nc1ccc(F)cc1 (stereo in doubt) [Compound 4v, 1-(4-Fluorophenyl)-3-[(2E,5Z)-1-methyl-5-{[5-(2-nitrophenyl)furan-2-yl]methylidene}-4-oxoimidazolidin-2-ylidene]thiourea] | > 32 µg/mL |
